The subject of assay [1] is HSV-1. Briefly: Plaque assay of supernatants from HSV-1 infected hTCEpi cells. It is filed as cell-based, HSV-1 (KOS strain). The protocol: All cells were cultured at 37° C. and 5% CO2 and supplemented with 100 U/mL penicillin and […]. Human corneal epithelial cells immortalized with hTERT (hTCEpi; Robertson, et al., 2005, Invest Ophthalmol Vis Sci. 46:470-478) were grown in complete keratinocyte growth medium 2 (KGM-2; Lonza, Basel, Switzerland). African green monkey kidney fibroblasts (CV-1; American Type Culture Collection, Manassas, Va.) were grown in Dulbecco's modified Eagle's medium (DMEM; Cellgro, Manassas, Va.) supplemented with 10% FBS. The KOS strain of HSV-1 was used in the in vitro and ex vivo infections, whereas McKrae strain was used for in vivo mouse experiments, and TK mutant dlsptk strain (Coen et al., 1989, Proc Natl Acad Sci USA 86:4736-4740) was used in the drug resistance experiments. All viral stocks were titered on CV-1 monolayers.
The following strains of HSV-1 were used: KOS, ICPO-null, HFEM, and tsB7. Subconfluent monolayers of cells were grown in six-well plates. Drug treatments were administered 45 minutes prior to infection and continued for the entire duration of each experiment. Unless indicated otherwise, KU-55933 (Batch No. 5, 99.7% purity; Tocris Bioscience, Bristol, UK) was used at 10 μM final concentration, phosphonoacetic acid (PAA) at 400 μg/mL (Sigma-Aldrich, St. Louis, Mo.), and acyclovir at 50 μg/mL (Sigma-Aldrich). […]

Assay [2] relates to cleaved caspase-3. The experiment in a line: Cleaved caspase-3 immunofluorescence in HSV-1 infected explanted human corneas. It is filed as cell-based. The note with it: 10 μM, 48 hpi, vs mock-treated. As for the experimental part: Human corneas were obtained from the Lions Eye Bank of Delaware Valley. Rabbit corneas were excised from intact fresh eyeballs of young (8-12 weeks) albino rabbits (Pel-Freez Biologicals, Rogers, Ark.). Protocol (Alekseev et al., 2012, J Vis Exp 69:e3631) for ex vivo corneal culture, infection, and treatment was followed closely. Briefly, corneoscleral buttons were excised and rinsed in PBS containing 200 U/mL penicillin and 200 μg/mL streptomycin. The endothelial concavity was filled with culture medium containing 1% low melting temperature agarose. The corneas were cultured epithelial side up in MEM medium supplemented with nonessential amino acids (1×), 2 mM […], 200 U/mL penicillin, and 200 μg/mL streptomycin. The next day, they were infected with 1×10^4 plaque forming units (PFU)/cornea of strain KOS HSV-1 for 1 hour, rinsed, and overlaid with fresh medium. Drug treatments were administered at the same concentrations as for cultured cells. For KU-55933 bioavailability assessment, corneas were treated with bleomycin (200 μg/mL) for 1 hour. The epithelial cell layer was collected by scraping to isolate DNA or protein. […] Treatment toxicity was assessed by briefly staining the cornea with fluorescein (1% wt/vol in PBS) and imaging the epithelial defects with 464-nm wavelength blue light (LDP LLC, Carlstadt, N.J.). […]

`NC(=O)c1ccc2[nH]c(-c3ccc(Oc4ccc(Cl)cc4)cc3)nc2c1` [Chk2 inhibitor II, 2-(4-(4-chlorophenoxy)phenyl)-1H-benzimidazole-5-carboxamide]: the “generation of infectious viral particles (plaque assay)” value in assay [1] (MOI 0.1, 10 μM, vs controls) is listed as “reduction”. Also, the “cleaved caspase-3 staining (apoptosis) in corneal epithelium” value in assay [2] is given as “abrogated”.
In the case of `O=c1cc(-c2cccc3c2Sc2ccccc2S3)oc(N2CCOCC2)c1` [KU-55933, 2-(morpholin-4-yl)-6-(thianthren-1-yl)-pyran-4-one], in assay [1] (MOI 0.1, KU-55933 10 μM, 20 hpi), the “inhibition of infectious particle production (plaque assay)” value was “greater than 10,000 fold”. Besides, the “cleaved caspase-3 staining (apoptosis) in corneal epithelium” value in assay [2] is reported as “reduction”.

Values taken from patent US20210023089A1, “Compositions Useful for Treating Herpes Simplex Keratitis, and Methods Using Same” (priority 2013, published 2021).
